The source of these data is PMC4613501, “Diversity in the structures and ligand-binding sites of nematode fatty acid and retinol-binding proteins revealed by Na-FAR-1 from Necator americanus” (Biochemical Journal, 2015).

Format in all cases: binding
The target of assay [1] is T1, Na-FAR-1 (Necator americanus, UniProt W2SRJ3).
T1 construct: gene NECAME_14208; His-tagged; expressed in E. coli BL21 (lambda DE3), selenomethionine form in B834
The assay can be described thus: fluorescence emission spectroscopy. The settings on record: delipidated protein.

In assay [2] the target is T1, Na-FAR-1. The assay can be described thus: X-ray crystallography. Conditions: selenomethionine-labelled protein; co-purified from E. coli, palmitate chosen as fit to a C16 fatty acid density; internal cavity around Lys96.
In assay [3] the target is T1, Na-FAR-1. The assay can be described thus: NMR titration ([…] HSQC chemical shift perturbation). The settings on record: apo protein 0.4 mM, sodium oleate, 20 mM sodium phosphate pH 7.20, 311 K; multiple sites, no fitted constant.

T1 sequence (W2SRJ3 entry or part of it): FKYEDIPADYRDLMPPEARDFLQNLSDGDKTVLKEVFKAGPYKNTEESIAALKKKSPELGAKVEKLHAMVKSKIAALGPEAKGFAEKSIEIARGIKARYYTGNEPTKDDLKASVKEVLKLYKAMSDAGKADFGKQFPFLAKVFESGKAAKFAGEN

As for `CC1=C(/C=C/C(C)=C/C=C/C(C)=C/CO)C(C)(C)CCC1` [retinol], at Na-FAR-1 [1] (retinol in ethanol, 1.5 μM protein, excitation 350 nm, isomer not stated), the fluorescence emission spectroscopy result is “Na-FAR-1 bound the fluorescent FA analogue DAUDA and the naturally fluorescent lipid retinol”.
`CCCCCCCCCCCCCCCC(=O)O` [palmitate]: the X-ray crystallography result at Na-FAR-1 [2] was “Since the predominant FA found in E. coli lipids is palmitate, we fitted this”.
Turning to `CN(C)c1cccc2c(S(=O)(=O)NCCCCCCCCCCC(=O)O)cccc12` [DAUDA], the fluorescence emission spectroscopy entry on Na-FAR-1 [1] (PBS, 1 μM DAUDA, 1 μM protein, excitation 345 nm) is “Na-FAR-1 bound the fluorescent FA analogue DAUDA and the naturally fluorescent lipid retinol”.
As to `CCCCCCCC/C=C\CCCCCCCC(=O)O` [oleic acid], the “NMR titration (15N HSQC chemical shift perturbation)” value on Na-FAR-1 [3] is on record as “the protein binds up to at least four oleate molecules”.
